Test results from US10159249B2 (BAYER CROPSCIENCE AKTIENGESELLSCHAFT, priority 2013, dated 2018).
Like-named read-outs stand apart in the source and are kept apart here.

Columns and labels:
[1] = tested on: transgenic soybean T1 plants expressing PfHPPD-Evo33; format: in vivo; conditions: for number of events, herbicide tolerance class 0 (41%-100% damaged leaf area) / number of events, herbicide tolerance class 1 (16%-40% damaged leaf area) / number of events, herbicide tolerance class 2 (6%-15% damaged leaf area) / number of events, herbicide tolerance class 3 (0%-5% damaged leaf area): soybean PfHPPD-Evo33, scored after 21 days
[2] = molecular target: PfHPPD-Evo40 (SEQ ID No 27) (Pseudomonas sp., UniProt P80064, A172V/A339E/A53E/D148E/D45N/E105D/E287Q/E300V/E334P/F143Y/G286D/G335S/H150N/H254A/H63N/I158V/I187A/I249V/K92N/L18F/N24G/N280D/S245T/S257K/S301E/T205S/V65I); assay: biochemical; set-up: species or system Pseudomonas fluorescens
Sequence of PfHPPD-Evo40 (SEQ ID No 27) (P80064 1-354 with tags or gaps with the stated changes limits assumed): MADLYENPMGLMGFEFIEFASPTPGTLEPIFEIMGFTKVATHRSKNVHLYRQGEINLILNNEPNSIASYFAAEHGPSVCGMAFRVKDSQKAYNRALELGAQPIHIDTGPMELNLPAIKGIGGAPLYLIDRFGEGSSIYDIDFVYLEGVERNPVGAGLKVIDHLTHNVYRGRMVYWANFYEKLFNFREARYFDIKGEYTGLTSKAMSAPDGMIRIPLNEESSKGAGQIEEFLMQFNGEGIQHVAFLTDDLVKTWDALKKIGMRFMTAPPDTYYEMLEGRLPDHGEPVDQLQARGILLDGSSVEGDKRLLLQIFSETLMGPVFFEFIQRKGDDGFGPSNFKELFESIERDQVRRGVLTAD

[3] = tested on: maize transgenic T0 events expressing PfHPPDEvo41; assay: Greenhouse trial, maize T0 plants, leaf area damage; format: in vivo; conditions: for number of events, herbicide tolerance class 0 (41%-100% damaged leaf area) / number of events, herbicide tolerance class 1 (16%-40% damaged leaf area) / number of events, herbicide tolerance class 2 (6%-15% damaged leaf area) / number of events, herbicide tolerance class 3 (0%-5% damaged leaf area): maize PfHPPDEvo41, six days after application
Protocol: (§1) Regenerated T0 events from tissue culture were transplanted into two inch square pots with synthetic soil (Fafard® Mix) and controlled-released fertilizer (Haifa Multicote™; polymer-coated controlled-release fertilizer, NPK Pro 18-6-12+Micronutrients) and cultivated in the greenhouse (GH) under supplementary high pressure sodium light for 12 days at a maximum of 30° C. during the day and a minimum of 22° C. at night. Fully recovered plants were transferred into five inch square pots filled with synthetic soil and control released fertilizer under the same environmental conditions. […] All herbicide treatments were conducted in a DeVries Tracker Sprayer system with standard application protocols, which are well known in the art. As a spray control T0 events have been sprayed with the adjunvant mixture lacking the herbicide.
(§2) Table 2 summarizes results of transgenic maize plants expressing mutants of the Pseudomonas fluorescens HPPD protein comprising an E (Glu)->P (Pro) replacement at position 335, a G (Gly)->W (Trp) replacement at position 336, a K (Lys)->A (Ala) replacement at position 339 and an A (Ala)->Q (Gln) replacement at position 340 (named PfHPPDEvo41 and being disclosed under SEQ ID No:16 in PCT/US2013/59598 (WO2014/043435) and being disclosed in present application under SEQ ID No. 29), or a mutated sequence of the Pseudomonas (=Comamonas) testosteroni HPPD protein comprising a E (Glu)->P (Pro) replacement at position 351, a G (Gly)->W (Trp) replacement at position 352, a K (Lys)->A (Ala) replacement at position 355 and an A (Ala)->Q (Gln) replacement at position 356 (named Axmi428H-Evo41 and being disclosed under SEQ ID No 56 in PCT/US2013/59598 (WO2014/043435) and being disclosed in present application as the HPPD protein sequence under SEQ ID No 33) or a mutated sequence of the Pseudomonas agarici HPPD protein comprising a E (Glu)->P (Pro) replacement at position 335, a G (Gly)->W (Trp) replacement at position 336, a K (Lys)->A (Ala) replacement at position 339 and an A (Ala)->Q (Gln) replacement at position 340 (named Axmi309H-EVO41 and being disclosed under SEQ ID No 54 in PCT/US2013/59598 (WO2014/043435) and being disclosed in present application as the HPPD protein sequence under SEQ ID No 37).
(§3) A rating of “1” was assigned to plants having a moderate tolerance with 16% to 40% damage of total leaf area. A rating of “2” was assigned to plants with good tolerance within the range of 6% to 15% damage of total leaf area.

[4] = tested on: maize transgenic T0 events expressing Axmi428H-Evo41; assay: as above; format: in vivo; conditions: for number of events, herbicide tolerance class 0 (41%-100% damaged leaf area) / number of events, herbicide tolerance class 1 (16%-40% damaged leaf area) / number of events, herbicide tolerance class 2 (6%-15% damaged leaf area) / number of events, herbicide tolerance class 3 (0%-5% damaged leaf area): maize Axmi428H-Evo41, six days after application
Protocol: as §1, §2, §3

[5] = tested on: wild type soybean Merlin; format: in vivo; conditions: scored after 21 days
[6] = tested on: transgenic soybean T1 plants expressing PfHPPD-Evo40; format: in vivo; conditions: for number of events, herbicide tolerance class 0 (41%-100% damaged leaf area) / number of events, herbicide tolerance class 1 (16%-40% damaged leaf area) / number of events, herbicide tolerance class 2 (6%-15% damaged leaf area) / number of events, herbicide tolerance class 3 (0%-5% damaged leaf area): soybean PfHPPD-Evo40, scored after 21 days
[7] = soybean Merlin (wt), 6.25 g AI/ha

`CSc1c(C(F)(F)F)ccc(C(=O)Nc2nnnn2C)c1Cl` was tested, and the “herbicide tolerance” value ([1]; most soybean T1 plants expressing PfHPPD-Evo33, 25 g AI/ha) was “high tolerance”, the “number of events, herbicide tolerance class 0 (41%-100% damaged leaf area)” value (“number of events … (41%-100% damaged leaf area)” below) ([1]; 6.25 g AI/ha) was 1 and the “number of events, herbicide tolerance class 1 (16%-40% damaged leaf area)” value (“number of events … (16%-40% damaged leaf area)” for short) ([1]; 6.25 g AI/ha) was 0. The “number of events, herbicide tolerance class 2 (6%-15% damaged leaf area)” value (“number of events … (6%-15% damaged leaf area)” for short) ([1]; 6.25 g AI/ha) was 0, the “number of events, herbicide tolerance class 3 (0%-5% damaged leaf area)” value (“number of events … (0%-5% damaged leaf area)” below) ([1]; 6.25 g AI/ha) was 11 and the “number of events … (41%-100% damaged leaf area)” value ([1]; 25 g AI/ha) was 1. The “number of events … (16%-40% damaged leaf area)” value ([1]; 25 g AI/ha) was 0, the “number of events … (6%-15% damaged leaf area)” value ([1]; 25 g AI/ha) was 2 and the “number of events … (0%-5% damaged leaf area)” value ([1]; 25 g AI/ha) was 13. The “number of events … (41%-100% damaged leaf area)” value ([1]; 50 g AI/ha) was 0, the “number of events … (16%-40% damaged leaf area)” value ([1]; 50 g AI/ha) was 4 and the “number of events … (6%-15% damaged leaf area)” value ([1]; 50 g AI/ha) was 0. For the same molecule, the “number of events … (0%-5% damaged leaf area)” value ([1]; 50 g AI/ha) was 0, the “number of events … (41%-100% damaged leaf area)” value ([1]; 75 g AI/ha) was 0 and the “number of events … (16%-40% damaged leaf area)” value ([1]; 75 g AI/ha) was 4. The “number of events … (6%-15% damaged leaf area)” value ([1]; 75 g AI/ha) was 0, the “number of events … (0%-5% damaged leaf area)” value ([1]; 75 g AI/ha) was 0 and the IC50 [2] was 0.251 µM. For the same molecule, the “% inhibition at 0.2 μM” value ([2]; 0.2 μM inhibitor, HGD assay) was 40%, the “share of tested events with high tolerance (5% or less bleached leaf area)” value ([3]; maize PfHPPDEvo41 (n=21), 100 g AI/ha) was roughly 70% and the “number of events … (41%-100% damaged leaf area)” value ([3]; 25 g AI/ha) was 6. The “number of events … (16%-40% damaged leaf area)” value ([3]; 25 g AI/ha) was 0, the “number of events … (6%-15% damaged leaf area)” value ([3]; 25 g AI/ha) was 1 and the “number of events … (0%-5% damaged leaf area)” value ([3]; 25 g AI/ha) was 28. The “number of events … (41%-100% damaged leaf area)” value ([3]; 50 g AI/ha) was 1, the “number of events … (16%-40% damaged leaf area)” value ([3]; 50 g AI/ha) was 0 and the “number of events … (6%-15% damaged leaf area)” value ([3]; 50 g AI/ha) was 2. For the same molecule, the “number of events … (0%-5% damaged leaf area)” value ([3]; 50 g AI/ha) was 28, the “number of events … (41%-100% damaged leaf area)” value ([3]; 100 g AI/ha) was 4 and the “number of events … (16%-40% damaged leaf area)” value ([3]; 100 g AI/ha) was 0. For the same molecule, the “number of events … (6%-15% damaged leaf area)” value ([3]; 100 g AI/ha) was 2, the “number of events … (0%-5% damaged leaf area)” value ([3]; 100 g AI/ha) was 15 and the “share of tested events with high tolerance (5% or less bleached leaf area)” value ([4]; maize Axmi428H-Evo41 (n=29), 100 g AI/ha) was roughly 70%. For the same molecule, the “number of events … (41%-100% damaged leaf area)” value ([4]; 50 g AI/ha) was 0, the “number of events … (16%-40% damaged leaf area)” value ([4]; 50 g AI/ha) was 0 and the “number of events … (6%-15% damaged leaf area)” value ([4]; 50 g AI/ha) was 0. The “number of events … (0%-5% damaged leaf area)” value ([4]; 50 g AI/ha) was 7, the “number of events … (41%-100% damaged leaf area)” value ([4]; 100 g AI/ha) was 3 and the “number of events … (16%-40% damaged leaf area)” value ([4]; 100 g AI/ha) was 4. For the same molecule, the “number of events … (6%-15% damaged leaf area)” value ([4]; 100 g AI/ha) was 1, the “number of events … (0%-5% damaged leaf area)” value ([4]; 100 g AI/ha) was 21 and the “number of events … (41%-100% damaged leaf area)” value [5, 7] was 4. For the same molecule, the “number of events … (16%-40% damaged leaf area)” value [5, 7] was 0, the “number of events … (6%-15% damaged leaf area)” value [5, 7] was 0 and the “number of events … (0%-5% damaged leaf area)” value [5, 7] was 0. For the same molecule, the “number of events … (41%-100% damaged leaf area)” value ([5]; soybean Merlin, 25 g AI/ha) was 4, the “number of events … (16%-40% damaged leaf area)” value ([5]; soybean Merlin, 25 g AI/ha) was 0 and the “number of events … (6%-15% damaged leaf area)” value ([5]; soybean Merlin, 25 g AI/ha) was 0. For the same molecule, the “number of events … (0%-5% damaged leaf area)” value ([5]; soybean Merlin, 25 g AI/ha) was 0, the “herbicide tolerance” value ([6]; most soybean T1 plants expressing PfHPPD-Evo40, 25 g AI/ha) was “high tolerance” and the “number of events … (41%-100% damaged leaf area)” value ([6]; 6.25 g AI/ha) was 0. The “number of events … (16%-40% damaged leaf area)” value ([6]; 6.25 g AI/ha) was 0, the “number of events … (6%-15% damaged leaf area)” value ([6]; 6.25 g AI/ha) was 0 and the “number of events … (0%-5% damaged leaf area)” value ([6]; 6.25 g AI/ha) was 4. For the same molecule, the “number of events … (41%-100% damaged leaf area)” value ([6]; 25 g AI/ha) was 2, the “number of events … (16%-40% damaged leaf area)” value ([6]; 25 g AI/ha) was 7 and the “number of events … (6%-15% damaged leaf area)” value ([6]; 25 g AI/ha) was 1. For the same molecule, the “number of events … (0%-5% damaged leaf area)” value ([6]; 25 g AI/ha) was 6, the “number of events … (41%-100% damaged leaf area)” value ([6]; 50 g AI/ha) was 0 and the “number of events … (16%-40% damaged leaf area)” value ([6]; 50 g AI/ha) was 4. For the same molecule, the “number of events … (6%-15% damaged leaf area)” value ([6]; 50 g AI/ha) was 0, the “number of events … (0%-5% damaged leaf area)” value ([6]; 50 g AI/ha) was 0 and the “number of events … (41%-100% damaged leaf area)” value ([6]; 75 g AI/ha) was 0. The “number of events … (16%-40% damaged leaf area)” value ([6]; 75 g AI/ha) was 4, the “number of events … (6%-15% damaged leaf area)” value ([6]; 75 g AI/ha) was 0 and the “number of events … (0%-5% damaged leaf area)” value ([6]; 75 g AI/ha) was 0.
